Data published in patent publication US12208093B2 (THE JOHNS HOPKINS UNIVERSITY, priority 2016, dated 2025).

Experiments:
[1] = tested on: pp28-luciferase HCMV Towne; test: microbe, parasite or virus in culture; type: cell-based, human cytomegalovirus (HCMV); settings: HFFs 0.5-2 million cells/plate; emetine 75 nM, GCV 5 μM
Excerpt: A GCV-resistant pp28-luciferase HCMV strain, with a C607Y mutation in UL97 was also used. The recombinant viruses express luciferase under the control of the late CMV gene promoter, pp28. […] The recombinant viruses provide a highly-sensitive and reproducible reporter system which correlates with the classic plaque reduction assay. […] Human herpes virus strains were: luciferase HSV1-KOS/Dlux/oriS and clinical isolates of HSV2.
Cell culture, virus infection and anti-viral assays. […] Infection with HCMV or HSV was performed in HFFs, and infection with mouse CMV was performed in MEFs. For HCMV, cells were seeded in either a 96-well plate or 100 mm culture plates (Corning Costar, Sigma Aldrich) at 0.5 or 2 million cells/plate. Following 90 minute adsorption, media was removed and cells were washed with PBS. Media containing 4% FBS and compounds were added to each well. Infected treated HFFs were collected at 72 hpi and lysates were assayed for luciferase activity using a luciferase assay kit (Promega, Madison, WI) on GloMax®-Multi+Detection System (Promega). In second cycle assays, supernatants were collected from all conditions of the first cycle at 96 hpi and used for infection of fresh HFFs in 96-well-plates. […] For HSV1-KOS/Dlux/oriS, a luciferase assay was performed at 24 hpi. Plaque assays were performed with clinical isolates of HSV2 and HCMV Towne. […] Following virus adsorption (60 min and 90 min for HSV and HCMV, respectively), virus was aspirated, and DMEM containing 4% fetal bovine serum (FBS) with (for HSV) or without (for HCMV) 0.5% carboxymethyl-cellulose, were added with the compounds at indicated concentrations into triplicate wells. After incubation at 37° C. for 10 days (for HCMV) or 2 days (for HSV), the overlay was removed and plaques were counted after crystal violet staining.

HCMV = test: Generation of drug resistant virus; type: cell-based, human cytomegalovirus (HCMV); settings: 5 passages, two fold increases of concentration
Protocol: Generation of drug resistant virus. Screening of drug resistant virus was performed as reported. Two million cells were plated on a 6-well plate and infected with HCMV (MOI 0.05). […] The cells were maintained in DMEM with 4% FBS until plaques were observed. The supernatants from these plates were used to infect fresh HFFs in a 6-well plate and each time drug concentration was increased by two fold. […] DNA extracted from supernatants collected at the last stage was used for UL97 sequencing.

HCMV entry = test: Virus entry immunofluorescence assay for pp65; type: cell-based; settings: emetine 75 nM, GCV 10 μM, CpG 2006 10 μM; added 24 h prior to infection
Protocol: Immunofluorescence. […] Compounds were diluted in serum-free medium and added to HFFs seeded on chamber slides 24 h prior to infection. After infection and treatment, cells were fixed, permeabilized, and air-dried. Cells were then incubated with mouse monoclonal anti-pp65 antibody at 37° C. in humidified chambers for 1 h, washed three times with 0.1% Tween 20 in PBS (PBST), incubated with rhodamine conjugated anti-mouse IgG (Sigma Chemical Co) at 37° C. in humidified chambers for 1 h, and washed with PBST (0.1% Tween 20). A drop of mount oil containing DAPI (4,6-diamidino-2-phenylindole) (Santa Cruz) was added to the slides before visualization with a Nikon Eclipse E-800 fluorescence microscope.

MDM2-IE2 interaction = test: Co-immunoprecipitation of MDM2 and IE2 in transfected HEK293 cells; type: cell-based; settings: HEK293 cells transfected with IE1/2; emetine 75 nM or GCV 5 μM, 4 h
Protocol: Transient transfections. HEK-293 cells seeded into 10 cm petri dishes were transfected with HCMV plasmid encoding IE1 and IE2 (pRL45) plasmid, 1 μg/dish, using Lipofectamine 2000 in serum free medium. After 6 h, 10% FBS containing media was added along with 10 μM of MG132. […] Cells were then harvested to prepare lysates for IP.
Co-immunoprecipitation (IP) and immunoblotting. Non-infected, infected or emetine-treated HFFs were treated with MG132 (10 μM) for 12 h. Cells were harvested after 24 hpi and lysed with IP buffer containing 150 mM NaCl, 50 mM Tris pH 7.5, 2 mM EDTA, 0.5% TritonX-100 and 0.5% NP-40-40. 1 mg of lysate was precleared with bead slurry for 30 min. The precleared lysates were incubated with anti-MDM2 (2 μg) antibody overnight. The antibody complexes were isolated using protein A/G beads (Santa Cruz), washed three times with 50% IP buffer. The immunoprecipitate—protein A/G beads were boiled in SDS sample buffer, and the supernatant was analyzed on SDS-PAGE gels after immunoblotting as described previously. […] Reverse IPs were performed by pulling down the precleared lysates with either anti-p53 antibody or anti-RPS14 antibody and detected with MDM2. […] In other experiments, transfected or treated HEK293 cell lysates were pulled-down with anti-IE2 antibody and detected with anti-MDM2 antibody and vice-versa for reverse IP.

## Nc1nc(O)c2ncn(COC(CO)CO)c2n1 [GCV, Ganciclovir]
[1]
  HCMV inhibition in relation to cell density at time of infection: inhibited HCMV replication irrespective of cell density
HCMV
  selection of resistant virus with increasing drug concentration: did select for resistant mutants
HCMV entry
  inhibition of viral entry: neither emetine nor GCV inhibited viral entry
MDM2-IE2 interaction
  interaction of MDM2 and IE2: no effect
